Results as given in patent publication US10906904B2, “ADO-resistant cysteamine analogs and uses thereof” (HORIZON ORPHAN LLC, priority 2015, dated 2021).
Like-named read-outs stand apart in the source and are kept apart here. One block for each compound: values may come before it.

How the values were obtained:
Cystine reactivity assay [1] = assay: Cystine reactivity assay; set-up: Cystine Reactivity: unit not given here; settings: for Cystine Reactivity Assay (30° C.) (%) Mean Value: percentage of 3 mM cysteamine
Method: Cystine reactivity was assessed by incubating 3 mM test compound with 100 nM BODIPY® FL L-Cystine (Life Tech.) at 30° C., pH 7.4 in phosphate buffer. […] Compound cystine reactivity was expressed as a percentage of that of 3 mM cysteamine.
Under resting conditions, the inherent fluorescence of BODIPY® FL L-cystine was very low due to the spatial proximity of the two BODIPY molecules causing quenching. Under chemical reaction (disruption of the S—S bond), the spatial distance was increased, the quenching lost, and measured fluorescence increased. Time (minutes) vs. fluorescence (relative fluorescence units—RFU) was plotted and linear regression analysis was performed to generate a slope value corresponding to the reaction rate in RFU/min and an R2 value.

human recombinant ADO = biological target: T1, human recombinant ADO (Homo sapiens, UniProt Q96SZ5); format: in vitro ADME
T1 sequence (Q96SZ5 1-270): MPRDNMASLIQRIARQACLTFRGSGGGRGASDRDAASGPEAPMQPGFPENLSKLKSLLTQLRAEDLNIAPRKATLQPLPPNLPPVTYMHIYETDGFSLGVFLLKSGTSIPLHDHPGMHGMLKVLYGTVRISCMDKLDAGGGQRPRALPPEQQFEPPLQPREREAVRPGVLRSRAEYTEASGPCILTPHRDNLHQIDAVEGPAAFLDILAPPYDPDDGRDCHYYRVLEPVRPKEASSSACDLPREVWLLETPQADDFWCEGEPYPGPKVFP
Method: The rate of ADO metabolism was determined by incubating 15 mM test compound with 60 μg/ml human recombinant ADO and 20 nM MitoXpress® O2-sensitive fluorescent probe (Luxcel) at 37° C. in assay buffer/salt in a sealed assay chamber. The initial rate of fluorescence (excitation λ380 nm and emission λ650 nm) increase was used to measure ADO-dependent oxygen depletion activity. The ability of ADO to metabolize compounds and concomitantly consume oxygen was expressed relative to that of 15 mM cysteamine.

[2] = system: cystinotic human fibroblasts; assay: Cystine depletion assay; format: cell-based; settings: for Emax: Homo sapiens, Fibroblast, 1 h
Method: The ability of test compounds to deplete cystine from cystinotic human fibroblasts (Coriell) was determined by incubating compounds with cells for 60 min at 37° C., 95% (v/v) air/5% (v/v) CO2 in Minimal Essential Media Eagle. Treated cell samples were subsequently harvested, then homogenized to ensure plasma and lysosomal membrane disruption. Protein was removed by acid precipitation and cystine in the supernatant measured using LC-MS/MS and HILIC chromatography. Protein levels were determined and cystine levels reported as nM per mg/ml protein. Cystine levels after test compound treatment were expressed as a percentage of that of untreated control cells.
Compounds were assayed at a concentration of 50 μM or 100 μM according to the general methods described above.
Cystine depletion levels for the compounds are expressed in Table 4 as a percent relative to the cystine depletion achieved by cysteamine (c.f. cysteamine 100%) at a similar concentration.
Cystine depletion levels for each of the compounds in Table 5 are expressed as a percent relative to the cystine depletion achieved by cysteamine (c.f. cysteamine 100%) at a similar concentration.

[3] = Dimethyl sulfide (DMS) detection in rat whole blood following oral compound administration; format: in vivo; settings: rat, in vivo, po, 150 mg/kg
Method: Male Sprague Dawley (SD) rats (200-250 g) were housed in cages under a 12 hour light/dark cycle with free access to food and water. Temperature and humidity were controlled according to UK Home Office regulations. For oral (po) administration, test compounds were formulated in water at a concentration of 30 mg/mL, to provide a dose of 150 mg/kg when administered orally in a 5 mL/kg dosing volume. Following compound or water (vehicle) administration to rats (n=15 per compound), terminal blood samples (>5 mL) were taken by cardiac puncture under CO2 at defined time-points post oral dosing (pre-dose, 0.25 hour, 0.5 hour, 1 hour and 2 hour). Blood was placed in sealed heparinized Eppendorf tubes on wet ice and stored at 4° C. prior to analyzing DMS levels by gas chromatography (GC).
For each sample of rat blood, 1 mL was added to an evacuated 20 mL GC-Headspace vial containing tetrahydrofuran (THF) internal standard. Headspace vials were sealed with a crimp cap and septum (to prevent the vaporization of volatile sulfur compounds into the open air) and thoroughly vortex mixed. All samples were processed using gas chromatography to measure DMS levels. In short, sulfur containing compounds were thermally liberated into the gas carrier stream and injected (1 μL) into the gas chromatography column (30 m×0.32 mm DB-624 1.8 μm). Under these conditions, the retention time for dimethyl sulfide (DMS) and THF internal standard were approximately 1.83 minutes and 3.82 minutes respectively.
For each analyzed blood sample, the ratio of DMS peak area to THF peak area was calculated. For the DMS calibration curve and assay linearity checks, this ratio was graphically plotted against the concentration of reference DMS standards (blank, 60 nM, 180 nM, 360 nM, 600 nM, 1200 nM, 1800 nM and 3000 nM). The concentration of DMS in each blood sample was calculated from the equation produced by this plot by linear regression analysis. […].

St-HdhQ^111/111 cells = assay: Glutamate-induced neuronal excitotoxicity assay; format: cell-based; settings: 6 mM L-glutamate 24 hours, % of effect of 100 μM cysteamine; for viability at 10 µM / viability at 100 µM: STHdhQ111; for viability at 10 µM: read-out: HdhQ^111/111 cell % survival (mean ± STD) Test Conc. 10 μM; for viability at 100 µM: read-out: HdhQ^111/111 cell % survival (mean ± STD) Test Conc. 100 μM
Method: The ability of test compounds to inhibit glutamate-induced excitotoxicity (neuroprotection) in St-HdhQ^111/111 cells was determined by incubating compounds with cells for 60 min at 33° C., 95% (v:v) air/5% (v:v) CO2 in Dulbecco's Modified Eagle Media. Following this, excitotoxicity was induced by the addition of 6 mM L-glutamate for 24 hours. Cell viability was assessed by measuring ATP levels using a luminescent-based CellTitre Glo assay (Promega). Compound neuroprotection (% cell survival) was expressed as a % of the effect recorded with 100 μM cysteamine (denoted as 100% cell survival).

Cystine reactivity assay [4] = settings: Table 4
[5] = Rodent pharmacokinetic assay (rat); format: in vivo; settings: 2 and 10 mg free base equivalents per kg, intravenous and oral gavage
Method: Pharmacokinetic parameters of a test compound in a rodent species (mouse and/or rat) were determined by administering a test compound at 2 and 10 mg free base equivalents per kg via the intravenous and oral gavage route to groups of three animals per route.
Blood samples were taken at various times after administration, plasma prepared, and submitted to analysis for parent drug using a qualified LC-MS-MS assay. Pharmacokinetics parameters derived from the plasma analytical data were determined using non-compartmental analysis.

[6] = system: cryopreserved rat hepatocytes; assay: Rat hepatocyte stability assay
Method: Rat hepatocytes were used to model in vivo hepatic clearance of the compounds by the ADO enzyme. Briefly, a Hepatocyte Stability Assay was carried out using cryopreserved rat hepatocytes.

[7] = Table 4, relative to cystine depletion by cysteamine (100%) at a similar concentration, read-out: Cystine Depletion (%)

- ADO Metabolism Assay (%) Mean Value (human recombinant ADO; human, 15 mM): <25%
- Mean DMS levels (nM) ± STD, Time 0.5 hr ([3]; male, Sprague Dawley, 0.5 h): <60 nM
- Mean DMS levels (nM) ± STD, Time 1 hr ([3]; male, Sprague Dawley, 1 h): <60 nM
- Mean DMS levels (nM) ± STD, Time 2 hr ([3]; male, Sprague Dawley, 2 h): <60 nM
Structure (SMILES): CC1(S)CCNCC1 [Compound 42341]
- Cystine Reactivity Assay (30° C.) (%) Mean Value (Cystine reactivity assay [1]; Table 4): <50%
- Cystine Reactivity Assay (30° C.) (%) Mean Value (Cystine reactivity assay [1]; Table 5): <50%
- Emax [2, 7]: 81%
- Emax ([2]; Table 5, relative to cystine depletion by cysteamine (100%) at a similar concentration, read-out: Cystine Depletion (%) Mean Value): 83%
- viability at 10 µM (St-HdhQ^111/111 cells; 10 μM): 1 ± 10%
- viability at 100 µM (St-HdhQ^111/111 cells; 100 μM): 55 ± 21%

- ADO Metabolism Assay (%) Mean Value (human recombinant ADO; human, 15 mM): <25%
- Mean DMS levels (nM) ± STD, Time 1 hr ([3]; male, Sprague Dawley, 1 h): <60 nM
- Mean DMS levels (nM) ± STD, Time 2 hr ([3]; male, Sprague Dawley, 2 h): <60 nM
Structure (SMILES): SC1CCNCC1 [Compound 41188]
- Cystine Reactivity Assay (30° C.) (%) Mean Value (Cystine reactivity assay [1]; Table 4): 59-90%
- Emax [2, 7]: 87%
- viability at 10 µM (St-HdhQ^111/111 cells; 10 μM): 20 ± 6%
- viability at 100 µM (St-HdhQ^111/111 cells; 100 μM): 105 ± 11%

Structure (SMILES): CC(S)CN (centres unmarked) [Compound 17330]
- Cystine Reactivity Assay (RT) (RFU) Mean Value (Cystine reactivity assay [4]): 4000-9000 RFU

Structure (SMILES): SCCN1CCCC1 [Compound 17518]
- ADO Metabolism Assay (%) Mean Value (human recombinant ADO; Table 4, relative to 15 mM cysteamine): <25%
- Emax [2, 7]: 99%
- Cystine Reactivity Assay (RT) (RFU) Mean Value (Cystine reactivity assay [4]): >9000 RFU

Structure (SMILES): SC1CNC1 [Compound 41446]
- Cystine Reactivity Assay (30° C.) (%) Mean Value (Cystine reactivity assay [1]; Table 5): >90%
- Cystine Depletion (%) ([2]; Table 4, relative to cystine depletion by cysteamine (100%) at a similar concentration): 82%
- Cystine Depletion (%) Mean Value ([2]; Table 5, relative to cystine depletion by cysteamine (100%) at a similar concentration): 82%
- Mean DMS levels (nM) ± STD, Time 1 hr [3]: <60 nM
- Mean DMS levels (nM) ± STD, Time 2 hr [3]: <60 nM
- HdhQ^111/111 cell % survival (mean ± STD) Test Conc. 10 μM (St-HdhQ^111/111 cells; 10 μM): 6 ± 9%
- HdhQ^111/111 cell % survival (mean ± STD) Test Conc. 100 μM (St-HdhQ^111/111 cells; 100 μM): 101 ± 11%

- ADO Metabolism Assay (%) Mean Value (human recombinant ADO; human, 15 mM): <25%
- Mean DMS levels (nM) ± STD, Time 1 hr ([3]; male, Sprague Dawley, 1 h): <60 nM
- Mean DMS levels (nM) ± STD, Time 2 hr ([3]; male, Sprague Dawley, 2 h): <60 nM
Structure (SMILES): CC(C)(S)CN [Compound 18782]
- Emax [2, 7]: 32%
- Cystine Reactivity Assay (RT) (RFU) Mean Value (Cystine reactivity assay [4]): <4000 RFU

Structure (SMILES): CC(N)CS (centres unmarked) [Compound 3c]
- Cystine Reactivity (Cystine reactivity assay [1]; Tables 1-3): 7733
- reactivity with cystine compared to cysteamine (in words) (Cystine reactivity assay [1]; text summary of Tables 1-3): increased reactivity with cystine compared to cysteamine
- metabolism by ADO compared to cysteamine (in words) (human recombinant ADO): significantly reduced metabolism by ADO compared to cysteamine
- cystine depletion levels (in words) ([2]; compared to cysteamine): similar
- Cystine depletion ([2]; compound at 50 μM or 100 μM, Tables 1-3): 97%
- Rat PK Bioavailability [5]: 23%
- Rat PK-Half life [5]: 48 min
- Rat Hepatocytes CLint [6]: 29500 µL/min/mg

- ADO Metabolism Assay (%) Mean Value (human recombinant ADO; human, 15 mM): <25%
Structure (SMILES): SCCN1CCOCC1 [Compound 17328]
- Emax [2, 7]: 13%
- Cystine Reactivity Assay (RT) (RFU) Mean Value (Cystine reactivity assay [4]): <4000 RFU
